In patent US7763601B2, “Prevention and treatment of obesity” (N-Gene Research Laboratories, Inc., priority 2006, dated 2010):

Tests used:
female Wistar rats [1] = experiment: Body weight gain induced by olanzapine in rats, 28 days; format: in vivo, rat; details: for Body weight (average in the group): day 28, control 255 g
Method: Groups of female Wistar rats were treated with vehicle (control group) and the agents to be tested for 28 days. Each group consisted of 6 animals fed with normal laboratory chow and tap water ad libitum. The agents to be tested were administered twice daily, at 8 h and 18 h, perorally. The antipsychotic olanzapine was administered in a dose of 1 mg/kg to induce body weight gain.

female Wistar rats [2] = experiment: Body weight gain induced by risperidone in rats, 21 days; format: in vivo, rat; details: for Body weight gain: day 21, control 27 g
Method: The experiments were carried out in eight-week-old female Wistar rats. Each test group consisted of 10 animals fed with normal laboratory chow and tap water ad libitum. The animals were treated with vehicle (control group) and the compounds to be tested for 21 days. In this experimental system, the antipsychotic risperidone was injected subcutaneously once daily in doses of 0.005 and 0.05 mg/kg, respectively to induce body weight gain.

female NMRI mice = experiment: Body weight gain induced by olanzapine or clozapine in mice, 15 days; format: in vivo, mouse; details: agent alone p.o. for 15 days (olanzapine 0.5, clozapine 1, BGP-15 10 mg/kg); between first and 15th day; control 2.98 g
Method: Groups of female NMRI mice were treated with vehicle (control group) and the agents to be tested for 15 days, perorally. Each group consisted of 10 animals fed with normal laboratory chow and tap water ad libitum. Treatments were performed between 5 and 6 pm, shortly before the dark phase, the primary feeding period of the day. Olanzapine was administered in a dose of 0.5 mg/kg, while clozapine was administered in a dose of 1 mg/kg to induce body weight gain.

[3] = agent alone, p.o. twice daily for 28 days (olanzapine 1, BGP-15 10, metformin 100, rosiglitazone 3 mg/kg), starting weight 171 g
[4] = agent together with olanzapine 1 mg/kg, p.o. twice daily for 28 days (BGP-15 10, metformin 100, rosiglitazone 3 mg/kg), olanzapine alone 330 g

SMILES | Body weight (average in the group) (female Wistar rats [1]; [3]) | Body weight (average in the group) (female Wistar rats [1]; [4]) | effect on average weight relative to the control group (female Wistar rats [1]; agent alone, 28 days) | Body weight gain (average in the group) (female NMRI mice) | other results
CN(CCOc1ccc(CC2SC(=O)NC2=O)cc1)c1ccccn1 (stereo not shown) [Rosiglitazone, rosiglitazone] | 284 g | 359 g | – | – | –
CN(C)C(=N)N=C(N)N [Metformin, metformin] | 266 g | 331 g | somewhat higher average weight relative to the control group | – | effect on the weight gain induced by olanzapine (female Wistar rats [1]; agent together with olanzapine 1 mg/kg, 28 days): did not reduce
Cc1nc2n(c(=O)c1CCN1CCC(c3noc4cc(F)ccc34)CC1)CCCC2 [Risperidone, risperidone] | – | – | – | – | effect on body weight gain relative to the control group (female Wistar rats [2]; agent alone, 21 days): increased body weight gain relative to the control group; Body weight gain (female Wistar rats [2]; risperidone alone 0.005 mg/kg s.c. once daily): 39.7 g; Body weight gain (female Wistar rats [2]; risperidone alone 0.05 mg/kg s.c. once daily): 41 g
CN1CCN(C2=Nc3cc(Cl)ccc3Nc3ccccc32)CC1 [Clozapine, 8-chloro-11-(4-methyl-1-piperazinyl)-5H-dibenzo[b,e][1,4]diazepine] | – | – | – | 4.11 g | –
Cc1cc2c(s1)Nc1ccccc1N=C2N1CCN(C)CC1 [Olanzapine, 2-methyl-4-(4-methyl-1-piperazinyl)-10H-thieno[2,3-b][1,5]-benzodiazepine] | 330 g | – | high average weight relative to the control group | 3.5 g | –
